Results: US7495027B2, “3-aryl-4-hydroxyfuranone compounds and the human and animal health use thereof” (Wyeth, priority 2003, dated 2009)
pIC50: −log10 of the molar value. In brackets after ≈: the same amount, converted by molar mass.

System: not given
Assay: not given
Conditions: not given

Structure (SMILES)	melting point [°C]
O=C1O/C(=C\c2ccc(Cl)cc2)C(O)=C1c1cccc2ccccc12 [Example 46]	235 to 237
O=C1O/C(=C\c2ccc(-c3ccccc3)cc2)C(O)=C1c1ccc(Cl)cc1Cl [Example 65]	252 to 256
O=C1O/C(=C\c2ccc(-c3ccccc3)cc2)C(O)=C1c1ccc(Cl)c(Cl)c1 [Example 66]	265 to 269
O=C1O/C(=C\c2ccc(-c3ccccc3)cc2)C(O)=C1c1cc(Cl)cc(Cl)c1 [Example 68]	232 to 235
O=C1O/C(=C\c2ccc3ccccc3c2)C(O)=C1c1ccc(-c2ccccc2)cc1 [Example 103]	266 to 270
O=C1O/C(=C\c2ccccc2C(F)(F)F)C(O)=C1c1ccc(-c2ccccc2)c(F)c1 [Example 107]	224 to 228
O=C1O/C(=C\c2cccc(C(F)(F)F)c2)C(O)=C1c1cccc(-c2ccccc2)c1 [Example 108]	210 to 212

System: enterococci
Assay: Minimum inhibitory concentration, microdilution broth method, enterococci
Format: cell-based
Conditions: E. faecalis GC 2242; Mueller-Hinton broth, 18-22 hours at 35° C.
In short: (§1)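 Broth microdilution per NCCLS M7-A5 (2000). Staphylococci and enterococci grown in Mueller-Hinton broth; streptococci in Mueller-Hinton broth with 5% horse blood (LHB). Panel includes recent clinical isolates resistant to methicillin, penicillin and/or vancomycin.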

Structure (SMILES)	MIC E. faecalis GC 2242 [µg/mL]
O=C1O/C(=C\c2ccc(-c3ccccc3)cc2)C(O)=C1c1cc(Cl)cc(Cl)c1 [Example 68]	1 (≈ 2.44 µM)

Same assay, conditions: E. faecalis GC 4555; Mueller-Hinton broth, 18-22 hours at 35° C.

Structure (SMILES)	MIC E. faecalis GC 4555 [µg/mL]
O=C1O/C(=C\c2ccc(-c3ccccc3)cc2)C(O)=C1c1cc(Cl)cc(Cl)c1 [Example 68]	2 (≈ 4.89 µM)

Same assay, conditions: Enterococcus faecalis, E. faecalis GC 2242; Mueller-Hinton broth, 18-22 hours at 35° C.; read-out: MIC E. faecalis GC 2242

Structure (SMILES)	MIC [µg/mL]
O=C1O/C(=C\c2ccc(Cl)cc2)C(O)=C1c1cccc2ccccc12 [Example 46]	64 (≈ 183 µM)
O=C1O/C(=C\c2ccc(-c3ccccc3)cc2)C(O)=C1c1ccc(Cl)cc1Cl [Example 65]	4 (≈ 9.77 µM)
O=C1O/C(=C\c2ccc(-c3ccccc3)cc2)C(O)=C1c1ccc(Cl)c(Cl)c1 [Example 66]	0.5 (≈ 1.22 µM)
O=C1O/C(=C\c2ccc3ccccc3c2)C(O)=C1c1ccc(-c2ccccc2)cc1 [Example 103]	32 (≈ 82 µM)
O=C1O/C(=C\c2ccccc2C(F)(F)F)C(O)=C1c1ccc(-c2ccccc2)c(F)c1 [Example 107]	2 (≈ 4.69 µM)
O=C1O/C(=C\c2cccc(C(F)(F)F)c2)C(O)=C1c1cccc(-c2ccccc2)c1 [Example 108]	2 (≈ 4.9 µM)

Same assay, conditions: Enterococcus faecalis, E. faecalis GC 4555; Mueller-Hinton broth, 18-22 hours at 35° C.; read-out: MIC E. faecalis GC 4555

Structure (SMILES)	MIC [µg/mL]
O=C1O/C(=C\c2ccc(Cl)cc2)C(O)=C1c1cccc2ccccc12 [Example 46]	32 (≈ 91.7 µM)
O=C1O/C(=C\c2ccc(-c3ccccc3)cc2)C(O)=C1c1ccc(Cl)cc1Cl [Example 65]	16 (≈ 39.1 µM)
O=C1O/C(=C\c2ccc(-c3ccccc3)cc2)C(O)=C1c1ccc(Cl)c(Cl)c1 [Example 66]	2 (≈ 4.89 µM)
O=C1O/C(=C\c2ccc3ccccc3c2)C(O)=C1c1ccc(-c2ccccc2)cc1 [Example 103]	64 (≈ 164 µM)
O=C1O/C(=C\c2ccccc2C(F)(F)F)C(O)=C1c1ccc(-c2ccccc2)c(F)c1 [Example 107]	8 (≈ 18.8 µM)
O=C1O/C(=C\c2cccc(C(F)(F)F)c2)C(O)=C1c1cccc(-c2ccccc2)c1 [Example 108]	8 (≈ 19.6 µM)

Target: E. coli UDP-N-acetylglucosamine enolpyruvoyl transferase, MurA (Escherichia coli, UniProt P0A749)
Sequence (P0A749 whole entry): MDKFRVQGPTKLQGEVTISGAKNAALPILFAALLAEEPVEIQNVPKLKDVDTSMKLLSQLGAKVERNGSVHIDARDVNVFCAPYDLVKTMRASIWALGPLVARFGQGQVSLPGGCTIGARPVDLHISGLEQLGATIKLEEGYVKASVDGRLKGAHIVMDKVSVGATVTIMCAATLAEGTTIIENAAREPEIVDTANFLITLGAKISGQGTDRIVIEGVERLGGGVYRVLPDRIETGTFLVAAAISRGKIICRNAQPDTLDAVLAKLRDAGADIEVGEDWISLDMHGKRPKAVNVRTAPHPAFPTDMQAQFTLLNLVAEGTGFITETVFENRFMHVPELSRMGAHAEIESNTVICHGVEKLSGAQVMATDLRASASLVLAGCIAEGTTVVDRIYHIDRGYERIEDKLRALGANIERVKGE
Assay: biochemical
Conditions: (E) E. coli enzyme
In short: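 Enzyme in 50 mM Tris/HCl pH 8.0 with 5 mM DTT and 20% glycerol was pre-incubated 10 min at 37° C with test compound in DMSO/water. Tris/BME and assay buffer then started the 1 hr, 37° C reaction, with a baseline 340 nm reading taken at start. Stop solution followed, and colour developed 30 minutes.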

Structure (SMILES)	pIC50
O=C1O/C(=C\c2ccc(Cl)cc2)C(O)=C1c1cccc2ccccc12 [Example 46]	< 4.14
O=C1O/C(=C\c2ccc(-c3ccccc3)cc2)C(O)=C1c1ccc(Cl)cc1Cl [Example 65]	< 4.21
O=C1O/C(=C\c2ccc(-c3ccccc3)cc2)C(O)=C1c1ccc(Cl)c(Cl)c1 [Example 66]	5.13
O=C1O/C(=C\c2ccc(-c3ccccc3)cc2)C(O)=C1c1cc(Cl)cc(Cl)c1 [Example 68]	5.13
O=C1O/C(=C\c2ccc3ccccc3c2)C(O)=C1c1ccc(-c2ccccc2)cc1 [Example 103]	< 4.19
O=C1O/C(=C\c2ccccc2C(F)(F)F)C(O)=C1c1ccc(-c2ccccc2)c(F)c1 [Example 107]	4.48
O=C1O/C(=C\c2cccc(C(F)(F)F)c2)C(O)=C1c1cccc(-c2ccccc2)c1 [Example 108]	4.33

Target: T1, S. aureus Uridine-diphosphate-N-acetylmuramoyl-L-alanine: D-glutamate liease, MurD (Staphylococcus aureus, UniProt Q2FZ92)
T1 sequence (Q2FZ92 1-449): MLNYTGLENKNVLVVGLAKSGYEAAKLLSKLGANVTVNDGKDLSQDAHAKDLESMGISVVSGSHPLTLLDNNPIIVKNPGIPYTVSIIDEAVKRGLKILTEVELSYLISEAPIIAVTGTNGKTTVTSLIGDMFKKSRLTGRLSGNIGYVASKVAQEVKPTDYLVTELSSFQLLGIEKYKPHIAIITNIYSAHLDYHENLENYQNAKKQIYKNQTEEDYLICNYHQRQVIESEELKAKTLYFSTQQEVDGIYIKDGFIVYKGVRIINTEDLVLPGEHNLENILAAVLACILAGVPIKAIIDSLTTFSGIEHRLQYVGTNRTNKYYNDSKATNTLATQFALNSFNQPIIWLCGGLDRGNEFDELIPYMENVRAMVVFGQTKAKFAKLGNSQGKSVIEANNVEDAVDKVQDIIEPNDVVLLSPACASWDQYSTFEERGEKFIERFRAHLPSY
Assay: biochemical
Conditions: (S) S. aureus enzyme
In short: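 Test solutions, 10 mg/mL stocks in DMSO, were brought to 100 μg/mL with 50 mM Tris/HCl (pH 8.5). Their inhibition of MurD, the enzyme of the fourth cell wall biosynthesis step, was measured.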

Structure (SMILES)	pIC50
O=C1O/C(=C\c2ccc(-c3ccccc3)cc2)C(O)=C1c1ccc(Cl)cc1Cl [Example 65]	4.44
O=C1O/C(=C\c2ccc(-c3ccccc3)cc2)C(O)=C1c1ccc(Cl)c(Cl)c1 [Example 66]	4.91
O=C1O/C(=C\c2ccc(-c3ccccc3)cc2)C(O)=C1c1cc(Cl)cc(Cl)c1 [Example 68]	4.57
O=C1O/C(=C\c2ccccc2C(F)(F)F)C(O)=C1c1ccc(-c2ccccc2)c(F)c1 [Example 107]	4.40
O=C1O/C(=C\c2cccc(C(F)(F)F)c2)C(O)=C1c1cccc(-c2ccccc2)c1 [Example 108]	4.43

Target: E. coli Uridine-diphosphate-N-acetvimuramoyl: L-alanine lipase, MurC (Escherichia coli, UniProt P17952)
Sequence (P17952 whole entry): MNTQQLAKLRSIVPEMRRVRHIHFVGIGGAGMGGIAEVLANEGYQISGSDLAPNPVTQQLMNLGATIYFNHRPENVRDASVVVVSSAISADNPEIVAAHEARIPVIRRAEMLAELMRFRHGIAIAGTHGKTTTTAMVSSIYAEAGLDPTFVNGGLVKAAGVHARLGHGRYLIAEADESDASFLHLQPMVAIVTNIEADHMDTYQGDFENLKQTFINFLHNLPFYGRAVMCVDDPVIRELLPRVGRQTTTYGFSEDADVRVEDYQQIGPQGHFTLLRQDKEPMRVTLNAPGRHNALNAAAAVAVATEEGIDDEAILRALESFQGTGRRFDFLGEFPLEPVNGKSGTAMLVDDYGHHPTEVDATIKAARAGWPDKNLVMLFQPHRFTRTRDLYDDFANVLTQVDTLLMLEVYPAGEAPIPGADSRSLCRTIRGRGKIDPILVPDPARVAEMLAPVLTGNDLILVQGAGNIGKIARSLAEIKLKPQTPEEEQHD
Assay: Inhibitory activity against MurC (E. coli)
Format: biochemical
Conditions: (E) E. coli enzyme; read-out: MurC IC50 (converted)

Structure (SMILES)	IC50 [µM]
O=C1O/C(=C\c2ccc(Cl)cc2)C(O)=C1c1cccc2ccccc12 [Example 46]	45.9
O=C1O/C(=C\c2ccc(-c3ccccc3)cc2)C(O)=C1c1ccc(Cl)cc1Cl [Example 65]	7.33
O=C1O/C(=C\c2ccc(-c3ccccc3)cc2)C(O)=C1c1ccc(Cl)c(Cl)c1 [Example 66]	7.33
O=C1O/C(=C\c2ccc(-c3ccccc3)cc2)C(O)=C1c1cc(Cl)cc(Cl)c1 [Example 68]	22
O=C1O/C(=C\c2ccc3ccccc3c2)C(O)=C1c1ccc(-c2ccccc2)cc1 [Example 103]	41
O=C1O/C(=C\c2ccccc2C(F)(F)F)C(O)=C1c1ccc(-c2ccccc2)c(F)c1 [Example 107]	14.1
O=C1O/C(=C\c2cccc(C(F)(F)F)c2)C(O)=C1c1cccc(-c2ccccc2)c1 [Example 108]	14.7

System: staphylococci
Assay: Minimum inhibitory concentration, microdilution broth method, staphylococci
Format: cell-based
Conditions: S. aureus GC 1131; Mueller-Hinton broth, 18-22 hours at 35° C.
In short: as §1

Structure (SMILES)	MIC S. aureus GC 1131 [µg/mL]
O=C1O/C(=C\c2ccc(-c3ccccc3)cc2)C(O)=C1c1cc(Cl)cc(Cl)c1 [Example 68]	2 (≈ 4.89 µM)

Same assay, conditions: S. aureus GC 4543; Mueller-Hinton broth, 18-22 hours at 35° C.

Structure (SMILES)	MIC S. aureus GC 4543 [µg/mL]
O=C1O/C(=C\c2ccc(-c3ccccc3)cc2)C(O)=C1c1cc(Cl)cc(Cl)c1 [Example 68]	2 (≈ 4.89 µM)

Same assay, conditions: Staphylococcus aureus, S. aureus GC 1131; Mueller-Hinton broth, 18-22 hours at 35° C.; read-out: MIC S. aureus GC 1131

Structure (SMILES)	MIC [µg/mL]
O=C1O/C(=C\c2ccc(Cl)cc2)C(O)=C1c1cccc2ccccc12 [Example 46]	64 (≈ 183 µM)
O=C1O/C(=C\c2ccc(-c3ccccc3)cc2)C(O)=C1c1ccc(Cl)cc1Cl [Example 65]	8 (≈ 19.5 µM)
O=C1O/C(=C\c2ccc(-c3ccccc3)cc2)C(O)=C1c1ccc(Cl)c(Cl)c1 [Example 66]	2 (≈ 4.89 µM)
O=C1O/C(=C\c2ccc3ccccc3c2)C(O)=C1c1ccc(-c2ccccc2)cc1 [Example 103]	> 128
O=C1O/C(=C\c2ccccc2C(F)(F)F)C(O)=C1c1ccc(-c2ccccc2)c(F)c1 [Example 107]	4 (≈ 9.38 µM)
O=C1O/C(=C\c2cccc(C(F)(F)F)c2)C(O)=C1c1cccc(-c2ccccc2)c1 [Example 108]	2 (≈ 4.9 µM)

Same assay, conditions: Staphylococcus aureus, S. aureus GC 4543; Mueller-Hinton broth, 18-22 hours at 35° C.; read-out: MIC S. aureus GC 4543

Structure (SMILES)	MIC [µg/mL]
O=C1O/C(=C\c2ccc(Cl)cc2)C(O)=C1c1cccc2ccccc12 [Example 46]	32 (≈ 91.7 µM)
O=C1O/C(=C\c2ccc(-c3ccccc3)cc2)C(O)=C1c1ccc(Cl)cc1Cl [Example 65]	8 (≈ 19.5 µM)
O=C1O/C(=C\c2ccc(-c3ccccc3)cc2)C(O)=C1c1ccc(Cl)c(Cl)c1 [Example 66]	1 (≈ 2.44 µM)
O=C1O/C(=C\c2ccc3ccccc3c2)C(O)=C1c1ccc(-c2ccccc2)cc1 [Example 103]	64 (≈ 164 µM)
O=C1O/C(=C\c2ccccc2C(F)(F)F)C(O)=C1c1ccc(-c2ccccc2)c(F)c1 [Example 107]	2 (≈ 4.69 µM)
O=C1O/C(=C\c2cccc(C(F)(F)F)c2)C(O)=C1c1cccc(-c2ccccc2)c1 [Example 108]	2 (≈ 4.9 µM)

Target: E. coli Uridine-diphosphate-N-acetylmuramoyl-L-alanine: D-glutamate liease, MurD (Escherichia coli, UniProt P14900)
Sequence (P14900 whole entry): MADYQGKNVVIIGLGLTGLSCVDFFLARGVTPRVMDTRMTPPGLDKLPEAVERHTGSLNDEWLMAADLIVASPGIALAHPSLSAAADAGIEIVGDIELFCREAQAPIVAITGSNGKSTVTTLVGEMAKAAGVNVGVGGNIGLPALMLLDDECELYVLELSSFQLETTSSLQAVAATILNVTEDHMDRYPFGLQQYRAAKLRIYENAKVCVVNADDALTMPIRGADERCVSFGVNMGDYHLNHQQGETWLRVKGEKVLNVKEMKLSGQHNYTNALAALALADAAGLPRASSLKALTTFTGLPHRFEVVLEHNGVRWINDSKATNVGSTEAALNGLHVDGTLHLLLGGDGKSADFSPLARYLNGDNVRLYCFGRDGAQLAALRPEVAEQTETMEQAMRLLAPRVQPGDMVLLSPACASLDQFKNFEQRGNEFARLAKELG
Assay: biochemical
Conditions: (E) E. coli enzyme
In short: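 Compound working solutions reach 100 μg/mL in 50 mM Tris/HCl (pH 8.5) after dilution of 10 mg/mL DMSO stocks; final level in the well not given here. Reaction buffer finals: 2 mM ATP, 50 mM MgCl2, 83 mM Tris/HCl, pH 8.0.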

Structure (SMILES)	pIC50
O=C1O/C(=C\c2ccc(Cl)cc2)C(O)=C1c1cccc2ccccc12 [Example 46]	< 4.14
O=C1O/C(=C\c2ccc(-c3ccccc3)cc2)C(O)=C1c1ccc(Cl)cc1Cl [Example 65]	4.23
O=C1O/C(=C\c2ccc(-c3ccccc3)cc2)C(O)=C1c1ccc(Cl)c(Cl)c1 [Example 66]	4.29
O=C1O/C(=C\c2ccc(-c3ccccc3)cc2)C(O)=C1c1cc(Cl)cc(Cl)c1 [Example 68]	4.57
O=C1O/C(=C\c2ccc3ccccc3c2)C(O)=C1c1ccc(-c2ccccc2)cc1 [Example 103]	< 4.19
O=C1O/C(=C\c2ccccc2C(F)(F)F)C(O)=C1c1ccc(-c2ccccc2)c(F)c1 [Example 107]	< 4.23
O=C1O/C(=C\c2cccc(C(F)(F)F)c2)C(O)=C1c1cccc(-c2ccccc2)c1 [Example 108]	< 4.21

Target: E. coli Enopyruvyl-UPD-N-acetylglucosamine reductase, Mur B (Escherichia coli, UniProt P08373)
Sequence (P08373 whole entry): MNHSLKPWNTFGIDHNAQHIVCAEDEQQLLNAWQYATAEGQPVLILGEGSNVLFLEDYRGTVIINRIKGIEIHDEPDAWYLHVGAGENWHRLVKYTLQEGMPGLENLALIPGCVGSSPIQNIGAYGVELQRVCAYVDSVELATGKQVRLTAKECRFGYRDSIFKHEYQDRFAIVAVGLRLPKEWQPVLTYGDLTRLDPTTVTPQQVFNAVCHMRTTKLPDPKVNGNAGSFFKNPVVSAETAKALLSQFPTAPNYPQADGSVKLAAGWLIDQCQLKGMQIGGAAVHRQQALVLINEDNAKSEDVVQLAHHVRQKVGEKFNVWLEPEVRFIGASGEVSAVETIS
Assay: biochemical
Conditions: (E) E. coli enzyme; read-out: MurB IC50 (converted)

Structure (SMILES)	IC50 [µM]
O=C1O/C(=C\c2ccc(Cl)cc2)C(O)=C1c1cccc2ccccc12 [Example 46]	> 71.7
O=C1O/C(=C\c2ccc(-c3ccccc3)cc2)C(O)=C1c1ccc(Cl)cc1Cl [Example 65]	24.4
O=C1O/C(=C\c2ccc(-c3ccccc3)cc2)C(O)=C1c1ccc(Cl)c(Cl)c1 [Example 66]	4.89
O=C1O/C(=C\c2ccc(-c3ccccc3)cc2)C(O)=C1c1cc(Cl)cc(Cl)c1 [Example 68]	7.33
O=C1O/C(=C\c2ccc3ccccc3c2)C(O)=C1c1ccc(-c2ccccc2)cc1 [Example 103]	15.4
O=C1O/C(=C\c2ccccc2C(F)(F)F)C(O)=C1c1ccc(-c2ccccc2)c(F)c1 [Example 107]	9.38
O=C1O/C(=C\c2cccc(C(F)(F)F)c2)C(O)=C1c1cccc(-c2ccccc2)c1 [Example 108]	24.5

System: Streptococci
Assay: Minimum inhibitory concentration, microdilution broth method, streptococci
Format: cell-based
Conditions: Mueller-Hinton broth with 5% horse blood, 18-22 hours at 35° C.
In short: as §1

Structure (SMILES)	MIC S. pneumo GC 1894 [µg/mL]
O=C1O/C(=C\c2ccc(-c3ccccc3)cc2)C(O)=C1c1cc(Cl)cc(Cl)c1 [Example 68]	<0.125

Same assay, conditions: S. pneumo GC 1894; Mueller-Hinton broth with 5% horse blood, 18-22 hours at 35° C.

Structure (SMILES)	MIC [µg/mL]
O=C1O/C(=C\c2ccc(Cl)cc2)C(O)=C1c1cccc2ccccc12 [Example 46]	16 (≈ 45.9 µM)
O=C1O/C(=C\c2ccc(-c3ccccc3)cc2)C(O)=C1c1ccc(Cl)cc1Cl [Example 65]	< 0.125
O=C1O/C(=C\c2ccc(-c3ccccc3)cc2)C(O)=C1c1ccc(Cl)c(Cl)c1 [Example 66]	< 0.125
O=C1O/C(=C\c2ccc3ccccc3c2)C(O)=C1c1ccc(-c2ccccc2)cc1 [Example 103]	0.5 (≈ 1.28 µM)
O=C1O/C(=C\c2ccccc2C(F)(F)F)C(O)=C1c1ccc(-c2ccccc2)c(F)c1 [Example 107]	0.25 (≈ 0.586 µM)
O=C1O/C(=C\c2cccc(C(F)(F)F)c2)C(O)=C1c1cccc(-c2ccccc2)c1 [Example 108]	1 (≈ 2.45 µM)
